Results published in patent publication US20210308034A1, “PREBIOTIC COMPOSITIONS AND METHODS FOR MAINTAINING A HEALTHY SKIN MICROBIOTA” (KIMBERLY-CLARK WORLDWIDE, INC., priority 2018, published 2021).

What was measured:
Type in all cases: cell-based
[1] = test system: Staphylococcus epidermidis (M23864:W2); test: Carbohydrate Screening Test Method (Biolog phenotype microarray), Bacteria Code J; settings: Commensal; carbon microarray plate, OD 600 nm, 36 hr, 33° C.; positive = more than 0.05 OD units above zero; blank cell = not utilized
Excerpt: (§1) After creating desired ratios of various commensal skin bacteria in a healthy skin microbiome, 188 different carbohydrate sources were screened as the next step in determining potential prospects for skin microbiota balancing agents. The screening process was set up to determine which carbohydrate sources promoted commensal and/or pathogenic bacteria as well as to obtain individual and combinations of carbohydrate sources that could serve as microbiota balancing agents that can support or maintain the healthy proportions of commensal skin bacteria of Corynebacterium, Staphylococcus, and Micrococcus. The screening was conducted utilizing Biolog phenotype microarray plates (Hayward, Calif.). Table 1 provides a coded list of the commensal and pathogenic skin bacteria that the carbohydrates were screened against.
(§2) The Bacteria Codes B, D, E, I, and J are commensal bacteria and are shaded in Table 2 for references purposes. The bacteria codes were each placed in a carbon microarray plate and screened through the Carbohydrate Screening Test Method, as described in the Test Methods section herein. If a particular bacteria code utilized a specific carbohydrate source as described in the Carbohydrate Screening Test Method, then the corresponding cell in Table 2 was marked with a Y (short for “Yes”).
(§3) To do so, the respective microarray data for the 79 carbohydrate sources was run through the GrowthRates 2.1 program to obtain growth parameters, such as growth rates and maximum yield data as described by the Belingham Research Institute, Hall, B. G., H. Acar and M. Barlow. 2014 Growth Rates Made Easy. Mol. Biol. Evol. 31:232-238 doi:10.1093/molbev/mst197. The max yield parameters generated were utilized to calculate ratios of tested commensal bacteria. The ratios calculated were compared back to the desired ratios identified above (Corynebacterium to Staphylococcus of 1.3, Corynebacterium to Micrococcus of 1.4, and Staphylococcus to Micrococcus of 1.1).
(§4) As an example of this methodology used to calculate the commensal bacteria ratios and the difference between the calculated ratios and the desired ratios, an example code from Table 3 will be described. […] The max yields were then used to calculate ratios the bacteria would reach in a co-culture.

[2] = test system: Pseudomonas aeruginosa (ATCC 9027); settings: Pathogenic; carbon microarray plate, OD 600 nm, 36 hr, 33° C.; positive = more than 0.05 OD units above zero; blank cell = not utilized
Excerpt: as §1, §2
(§5) The study employed 10 representative skin bacteria; Staphylococcus epidermidis ATCC 14990, Staphylococcus epidermidis M23864:W2, Staphylococcus aureus ATCC 6538, Staphylococcus aureus ATCC 25904 (Newman), Pseudomonas aeruginosa ATCC 9027, Micrococcus luteus ATCC […], Micrococcus luteus SK58, Klebsiella pneumoniae ATCC BAA-2146, Corynebacterium amycolatum SK46, and Corynebacterium minutissimum ATCC 23348. Cultures were started from freezer bead stocks by placing a single bead into 20 mL of tryptic soy broth (TSB) for all organisms except C. amycolatum SK46 and C. minutissimum ATCC 23348, which were placed into brain heart infusion (BHI) broth. Cultures were grown for about 24 hr at 37° C. except M. luteus ATCC 49732 and M. luteus SK58, which were grown at 30° C. A passage of the culture was made using a sterile swab and streaked onto two M9*2 agar plates to prepare the incubated culture for the phenotype microarray pate according to Table 4. Plates were incubated for about 24 hr at 37° C. except for M. luteus ATCC 49732 and M. luteus SK58, which were incubated at 30° C. for 24 hr.
(§6) All cultures were harvested and washed before inoculation into the carbon microarray plate (BiOLOG, Hayward Calif.), with Biolog Plates PM1 and PM2 each having a source definition of Carbon. The bacteria on the M9*2 agar was suspended via agitation with an inoculating loop in 1 mL of M9*1 media for collection in a 1.7 mL micro centrifuge tube, as noted in Table 4. The bacteria was suspended again in M9*1 media, agitated, and collected into the same 1.7 mL microcentrifuge tube used in the previous step. The tube was centrifuged for 5 minutes at 4,000×G, supernatant decanted, the pellet was resuspended in 1 mL of M9*1 media, and vortex. This washing process was repeated for a total of 4 times.
A tenfold dilution in M9*1 media was performed using 1 mL of the washed bacterial culture. Of the tenfold dilution 200 μL was placed in an untreated 96-well plate (Falcon, Pasadena Tx.) for an initial optical density (OD) reading at a wavelength of 600 nm. The OD was used to correlate to colony forming units (CFU) per milliliter by using linear regression lines for each organism.

[3] = test system: Corynebacterium jeikum (ATCC 33033); test: Carbohydrate Screening Test Method (Biolog phenotype microarray), Bacteria Code B; settings: Commensal; carbon microarray plate, OD 600 nm, 36 hr, 33° C.; positive = more than 0.05 OD units above zero; blank cell = not utilized
Method: The screening process was set up to determine which carbohydrate sources promoted commensal and/or pathogenic bacteria as well as to obtain individual and combinations of carbohydrate sources that could serve as microbiota balancing agents that can support or maintain the healthy proportions of commensal skin bacteria of Corynebacterium, Staphylococcus, and Micrococcus. The screening was conducted utilizing Biolog phenotype microarray plates (Hayward, Calif.). Table 1 provides a coded list of the commensal and pathogenic skin bacteria that the carbohydrates were screened against.
as §2
as §3, with “2014 Growth Rates Made Easy.” left out, “31:232-238 doi:10.1093/molbev/mst197.” left out
as §4
A passage of the culture was made using a sterile swab and streaked onto two M9*2 agar plates to prepare the incubated culture for the phenotype microarray pate according to Table 4.
All cultures were harvested and washed before inoculation into the carbon microarray plate (BiOLOG, Hayward Calif.), with Biolog Plates PM1 and PM2 each having a source definition of Carbon. The bacteria on the M9*2 agar was suspended via agitation with an inoculating loop in 1 mL of M9*1 media for collection in a 1.7 mL micro centrifuge tube, as noted in Table 4.

[4] = test system: Micrococcus luteus (SK58); test: Carbohydrate Screening Test Method (Biolog phenotype microarray), Bacteria Code E; settings: Commensal; carbon microarray plate, OD 600 nm, 36 hr, 33° C.; positive = more than 0.05 OD units above zero; blank cell = not utilized
Excerpt: as §1, §2, §3, §4

[5] = test system: Klebsiella pneumoniae (ATCC BAA-2146); settings: Pathogenic; carbon microarray plate, OD 600 nm, 36 hr, 33° C.; positive = more than 0.05 OD units above zero; blank cell = not utilized
Excerpt: as §1
Table 2 provides the results of screening various carbohydrate sources against the commensal and pathogenic bacteria codes listed in Table 1. The Bacteria Codes B, D, E, I, and J are commensal bacteria and are shaded in Table 2 for references purposes. The bacteria codes were each placed in a carbon microarray plate and screened through the Carbohydrate Screening Test Method, as described in the Test Methods section herein. If a particular bacteria code utilized a specific carbohydrate source as described in the Carbohydrate Screening Test Method, then the corresponding cell in Table 2 was marked with a Y (short for “Yes”). […] Many of the carbohydrate sources were utilized by both commensal and pathogenic bacteria, and as such, would not provide an advantage for selective growth of the commensal bacteria. However, some of the carbohydrate sources were only used by commensal bacteria and were identified for further testing as described herein.
as §5, §6
A tenfold dilution in M9*1 media was performed using 1 mL of the washed bacterial culture. Of the tenfold dilution 200 μL was placed in an untreated 96-well plate (Falcon, Pasadena Tx.) for an initial optical density (OD) reading at a wavelength of 600 nm. The OD was used to correlate to colony forming units (CFU) per milliliter by using linear regression lines for each organism. […]

Compound | Carbohydrate Screening Results, Bacteria Code J [1] | Carbohydrate Screening Results, Bacteria Code F [2] | Carbohydrate Screening Results, Bacteria Code B [3] | Carbohydrate Screening Results, Bacteria Code E [4] | Carbohydrate Screening Results, Bacteria Code C [5]
C[N+](C)(C)CC(O)CC(=O)[O-] (racemic) [D,L-Carnitine] | Y | Y |  |  | 
O=P(O)(O)OCC(O)CO (racemic) [D,L-α-Glycerol-Phosphate] | Y |  | Y | Y | 
OC[C@@H](O)[C@@H](O)[C@@H](O)CO [Adonitol] |  | Y | Y | Y | Y
O=C[C@H](O)[C@@H](O)[C@H](O)[C@H](O)C(=O)O [D-Glucuronic Acid] |  | Y | Y | Y | Y
OC[C@H]1O[C@H](OCC2O[C@@H](O)[C@H](O)[C@@H](O)[C@@H]2O)[C@H](O)[C@@H](O)[C@H]1O (stereo partly drawn) [D-Melibiose] |  | Y | Y | Y | Y
O=C(CO)[C@H](O)[C@H](O)[C@H](O)CO [D-Psicose] |  | Y | Y | Y | Y
OC[C@@H](O)[C@@H](O)[C@H](O)[C@@H](O)CO [D-Sorbitol] |  | Y |  | Y | Y
O=C[C@H](O)[C@@H](O)[C@H](O)CO [D-Xylose] |  | Y |  |  | Y
NCC(O)c1ccc(O)cc1 [D.L-Octopamine] | Y | Y |  |  | Y
OCC(O)CO [Glycerol] | Y |  | Y |  | Y
O=C[C@H](O)[C@@H](O)[C@@H](O)CO [L-Arabinose] |  | Y |  |  | Y
N[C@@H](Cc1c[nH]cn1)C(=O)O [L-Histidine] |  | Y |  |  | Y
O=C(O)[C@H](O)[C@@H](O)C(=O)O [L-Tartaric Acid] |  | Y |  |  | Y
OC[C@@H](O)[C@@H](O[C@H]1O[C@H](CO)[C@@H](O)[C@H](O)[C@H]1O)[C@H](O)[C@@H](O)CO [Maltitol] |  | Y |  |  | Y
CC(=O)N[C@@H](CO)[C@@H](O)[C@H](O)[C@H](O)CO [N-Acetyl-D-Glucosaminitol] | Y |  |  |  | 
O=C(O)[C@]1(O)C[C@@H](O)[C@@H](O)[C@H](O)C1 [Quinic Acid] |  | Y |  |  | Y
NCCc1ccc(O)cc1 [Tyramine] |  | Y | Y |  | Y
CO[C@@H]1O[C@H](CO)[C@@H](O)[C@H](O)[C@H]1O [β-Methyl-D-Galactoside] |  | Y |  |  | Y
OC[C@H]1O[C@@H]2O[C@H]3[C@H](O)[C@@H](O)[C@@H](O[C@H]4[C@H](O)[C@@H](O)[C@@H](O[C@H]5[C@H](O)[C@@H](O)[C@@H](O[C@H]6[C@H](O)[C@@H](O)[C@@H](O[C@H]7[C@H](O)[C@@H](O)[C@@H](O[C@H]8[C@H](O)[C@@H](O)[C@@H](O[C@H]9[C@H](O)[C@@H](O)[C@@H](O[C@H]1[C@H](O)[C@H]2O)O[C@@H]9CO)O[C@@H]8CO)O[C@@H]7CO)O[C@@H]6CO)O[C@@H]5CO)O[C@@H]4CO)O[C@@H]3CO [γ-Cyclodextrin] | Y |  |  |  | 
NCCCCC(=O)O [δ-Amino Valeric Acid] | Y |  |  |  | 
Dextrin | Y |  |  |  | Y
Gentiobiose |  | Y |  |  | Y
Mannan | Y |  |  |  | 
